Data on one compound can be found in ChEMBL document CHEMBL5500412, “Discovery of Highly Selective, Potent, Covalent, and Orally Bioavailable Factor XIIa Inhibitors for the Treatment of Thrombo-Inflammation” (J Med Chem, 2024).

Usually Tmax stands for the time from dosing to the highest level. Usually Ki stands for a measure of affinity in units of concentration, obtained from inhibition or displacement. The MRT inf is a mean duration of stay, worked out from the concentration-time curve. Usually half-life stands for the time in which the quantity being followed falls by half. A low value points to fast loss.

Structures are written as SMILES.

A short description of data set [1]: Toxicity in BALB/c mouse assessed as effect on ALP level in serum at 60 to 100 mg/kg, po measured after 14 days. The settings on record: in vivo, 336 h, dose 60-100 mg/kg, time 14 day. The format is organism-based.
Data set [2] can be described thus: Toxicity in BALB/c mouse assessed as effect on CREA level in serum at 60 to 100 mg/kg, po measured after 14 days. The format is organism-based. The settings on record: in vivo, 336 h, dose 60-100 mg/kg, time 14 day.
Data set [3] can be described thus: Tmax in BALB/c mouse at 5 mg/kg, po measured upto 24 hrs by LC-MS/MS analysis. The format is ADME, organism-based. As to conditions: in vivo.
The nature of data set [4]: Toxicity in BALB/c mouse assessed as effect on lung at 60 to 100 mg/kg, po measured after 14 days by H and E staining based analysis. The format is organism-based. The settings on record: in vivo, 336 h, dose 60-100 mg/kg, time 14 day.
Data set [5] can be described thus: Toxicity in BALB/c mouse assessed as effect on AST level in serum at 60 to 100 mg/kg, po measured after 14 days. It counts as organism-based. As to conditions: in vivo, 336 h, dose 60-100 mg/kg, time 14 day.
For the next data set, the target named is T1, Coagulation factor XII (Homo sapiens, UniProt P00748).
T1 sequence (P00748 whole entry): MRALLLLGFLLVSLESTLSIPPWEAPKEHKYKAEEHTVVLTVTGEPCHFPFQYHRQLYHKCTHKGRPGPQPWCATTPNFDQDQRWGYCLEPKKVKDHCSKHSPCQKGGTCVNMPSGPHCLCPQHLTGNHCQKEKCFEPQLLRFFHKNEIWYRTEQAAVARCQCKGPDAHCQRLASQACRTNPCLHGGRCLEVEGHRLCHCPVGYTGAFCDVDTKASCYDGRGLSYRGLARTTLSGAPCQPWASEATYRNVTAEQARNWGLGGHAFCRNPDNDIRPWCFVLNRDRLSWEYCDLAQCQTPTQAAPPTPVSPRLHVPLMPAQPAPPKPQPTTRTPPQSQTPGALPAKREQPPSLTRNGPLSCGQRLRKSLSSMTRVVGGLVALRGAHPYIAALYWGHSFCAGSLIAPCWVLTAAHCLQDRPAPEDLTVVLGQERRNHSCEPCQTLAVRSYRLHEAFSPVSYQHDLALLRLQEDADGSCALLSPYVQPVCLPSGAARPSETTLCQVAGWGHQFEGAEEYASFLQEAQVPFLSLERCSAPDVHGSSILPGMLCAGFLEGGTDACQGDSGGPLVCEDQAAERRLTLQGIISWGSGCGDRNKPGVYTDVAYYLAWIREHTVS
As to the kind of experiment: Binding affinity to FXIIa (unknown origin) assessed as inhibition constant using H-D-Pro-Phe-Arg-pNA.2HCl as substrate by spectrophotometric analysis.

Data set [6] in a line: MRT(0 to infinity) in BALB/c mouse at 5 mg/kg, po measured upto 24 hrs by LC-MS/MS analysis. It counts as ADME, organism-based. As to conditions: in vivo.
Data set [7] can be described thus: Half life in BALB/c mouse at 1 mg/kg, iv measured upto 24 hrs by LC-MS/MS analysis. The settings on record: in vivo. It counts as ADME, organism-based.

Turning to `CC(C)N1CCCN(c2ccc(C(=O)n3nc(-c4ccccn4)nc3N)c3ccccc23)CC1`, the Activity result in data set [1], in data set [2], in data set [4] and in data set [5] was “Non-Toxic” throughout. Moreover, the Tmax in data set [3] stood at 1 h. The Ki at Coagulation factor XII came out at 11.4 nM. The same compound registered a mean residence time (MRT inf) in data set [6] of 1.6 h. This compound also had a half-life in data set [7] of 45 min.
